Values of other authors, collected in patent US9133185B2, “Heteroaryl derivatives” (CHIESI FARMACEUTICI S.P.A., priority 2013, dated 2015).

Key:
[1] = test system: smoking model of COPD in mice
[2] = COPD patients, 500 mg once daily, given over 12 months
[3] = COPD patients, oral, given over 4 weeks
[4] = patients with severe disease who have frequent exacerbations and mucus hypersecretion

O=C(Nc1c(Cl)cncc1Cl)c1ccc(OC(F)F)c(OCC2CC2)c1 [Roflumilast, roflumilast]
lung function (COPD patients; [2]): improved lung function in COPD patients to a small extent
reducing exacerbations or improving quality of life (COPD patients; [2]): little effect
CXCL8 concentrations in sputum (COPD patients; [3]): significantly reduces
reduction of the numbers of neutrophils in sputum (COPD patients; [3]): 36%
improvement of FEV 1 (COPD patients; [4]): approximately 50 mL
reduction of exacerbation (COPD patients; [4]): about 15%
lung inflammation and emphysema [1]: inhibits lung inflammation and emphysema
